This passage reports IC50 results from publication PMC4529246 (PLoS ONE, 2015).

What all share (assay): cell-based
For assay [1], the target named is T1, system xc- (IMR90) (Homo sapiens, UniProt Q9UPY5).
T1 construct: gene SLC7A11; native endogenous transporter in intact IMR-90 fibroblasts
T1 sequence (Q9UPY5 1-501): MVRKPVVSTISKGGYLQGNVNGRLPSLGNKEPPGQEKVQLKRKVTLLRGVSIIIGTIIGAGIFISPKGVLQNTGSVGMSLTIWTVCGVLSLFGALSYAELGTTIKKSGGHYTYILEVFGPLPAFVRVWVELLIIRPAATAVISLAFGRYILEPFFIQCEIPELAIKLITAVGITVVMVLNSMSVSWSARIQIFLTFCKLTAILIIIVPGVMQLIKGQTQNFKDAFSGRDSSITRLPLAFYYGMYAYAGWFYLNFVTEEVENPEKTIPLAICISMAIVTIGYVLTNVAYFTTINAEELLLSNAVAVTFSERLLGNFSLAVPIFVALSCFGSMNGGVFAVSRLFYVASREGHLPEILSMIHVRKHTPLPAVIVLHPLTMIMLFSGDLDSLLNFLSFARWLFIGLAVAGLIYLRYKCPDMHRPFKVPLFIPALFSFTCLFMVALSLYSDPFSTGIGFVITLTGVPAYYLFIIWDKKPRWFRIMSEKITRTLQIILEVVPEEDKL
T1 sequence (P08195 1-529 partner): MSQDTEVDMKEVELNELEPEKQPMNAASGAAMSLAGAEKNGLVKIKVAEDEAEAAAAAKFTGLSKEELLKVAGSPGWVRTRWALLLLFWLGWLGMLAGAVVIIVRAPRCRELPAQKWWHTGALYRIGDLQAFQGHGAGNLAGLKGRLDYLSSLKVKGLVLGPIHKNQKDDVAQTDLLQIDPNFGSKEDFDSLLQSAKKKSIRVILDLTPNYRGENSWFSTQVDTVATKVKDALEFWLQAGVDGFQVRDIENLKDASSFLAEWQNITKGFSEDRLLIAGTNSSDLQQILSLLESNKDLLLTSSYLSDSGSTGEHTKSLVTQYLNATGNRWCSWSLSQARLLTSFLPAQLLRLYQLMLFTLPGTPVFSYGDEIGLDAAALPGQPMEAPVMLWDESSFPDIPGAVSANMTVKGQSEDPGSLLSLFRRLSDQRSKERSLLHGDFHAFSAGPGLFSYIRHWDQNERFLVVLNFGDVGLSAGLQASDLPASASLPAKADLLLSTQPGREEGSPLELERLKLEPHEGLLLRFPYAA
Set-up: species or system IMR-90; cystine-induced glutamate release inhibition, 30 min, PBS with Na+. The conditions noted are these: PBS (+Na+), 30 min; read-out: Glutamate Release IMR90. How it is done:
Early characterization of the cystine-induced glutamate release assay was carried out in the 96-well format and later adapted to the 384-well format. Briefly, CCF-STTG-1 cells were seeded at 0.04 x 10^6 cells per 96-well and grown to confluence. […] Cells were maintained for 2h at 37°C in an incubator with 5% CO2. At the end of the incubation period, cystine-induced glutamate release was measured directly. The assay was further characterized for the dependence of cystine-induced glutamate release on protein content (mg/ml) and the time of incubation. […] Cells were maintained at 37°C in an incubator with 5% CO2 and the glutamate released over a 2h period measured. Identical protocols were followed for IC50 determinations using UB or PBS with CCF-STTG-1, neuroglioma (H4) or fibroblast (IMR-90) cells. U-87 MG cells were seeded at 0.06 x 10^6 cells per 96-well (in 0.3 ml growth media) and tested on Day2. When running the assay in the 384-well format, CCF-STTG-1 cells were seeded at 0.01 x 10^6 cells per well (in 0.025 ml growth media) and grown to confluence. […] Cells were maintained for 3h at 37°C in an incubator with 5% CO2. At the end of the incubation period, cystine-induced glutamate release was measured directly. The rates of [^14C]-cystine influx and cystine-induced glutamate efflux were closely examined using CCF-STTG-1 (grade IV astrocytoma) cells in order to understand the reasons for the lower IC50 values and longer time-dependence in the cystine-induced glutamate release assay. […] The experiments were repeated also using IMR-90 fibroblast cells derived from normal embryonic lung and a second cancer line, the H4 neuroglioma cells. […] (DOCX) Click here for additional data file.

In assay [2] the target is T2, system xc- (H4) (Homo sapiens, UniProt Q9UPY5).
T2 construct: gene SLC7A11; native endogenous transporter in intact H4 neuroglioma cells
T2 sequence (Q9UPY5 1-501): T1 sequence (Q9UPY5 1-501)
T2 sequence (P08195 1-529 partner): T1 sequence (P08195 1-529 partner)
Set-up: cystine-induced glutamate release inhibition, 30 min, PBS with Na+. The settings on record: PBS (+Na+), 30 min; read-out: Glutamate Release H4. As for the experimental part: Early characterization of the cystine-induced glutamate release assay was carried out in the 96-well format and later adapted to the 384-well format. Briefly, CCF-STTG-1 cells were seeded at 0.04 x 10^6 cells per 96-well and grown to confluence. […] Cells were maintained for 2h at 37°C in an incubator with 5% CO2. At the end of the incubation period, cystine-induced glutamate release was measured directly. The assay was further characterized for the dependence of cystine-induced glutamate release on protein content (mg/ml) and the time of incubation. […] Cells were maintained at 37°C in an incubator with 5% CO2 and the glutamate released over a 2h period measured. Identical protocols were followed for IC50 determinations using UB or PBS with CCF-STTG-1, neuroglioma (H4) or fibroblast (IMR-90) cells. U-87 MG cells were seeded at 0.06 x 10^6 cells per 96-well (in 0.3 ml growth media) and tested on Day2. When running the assay in the 384-well format, CCF-STTG-1 cells were seeded at 0.01 x 10^6 cells per well (in 0.025 ml growth media) and grown to confluence. […] Cells were maintained for 3h at 37°C in an incubator with 5% CO2. At the end of the incubation period, cystine-induced glutamate release was measured directly. […]

Assay [3] deals with T2, system xc- (H4). Set-up: [14C]-cystine uptake inhibition, 2 min, PBS with Na+, scintillation counting. The conditions noted are these: PBS (+Na+), 2 min. As for the experimental part:
Early characterization work was carried out in a 12-well format and the assay later adapted and characterized in the 96-well format. Briefly, CCF-STTG-1 cells were seeded at 0.04 x 10^6 cells per well in 0.2 ml growth media and grown to confluence. […] After 15 min, uptake was terminated by three washes (115 μl/well) with ice-cold UB. Cells were then lysed with 0.1 N NaOH (100 μl/well) and the radioactivity in the cells measured using scintillant-coated 96-well plates (PerkinElmer: 6005630) and normalized to protein contents. The assay was further characterized for the dependence of ^14C-cystine uptake on protein content (mg/ml) and the time and temperature of incubation. To determine IC50 values, CCF-STTG-1 cells were similarly seeded and grown to confluence. On day 3, transport was initiated upon the addition of pre-warmed (37°C) [^14C]-cystine 80 μM (5.631 μCi/μmol) in Earle’s Balanced Salt Solution (EBSS, Sigma: E3024, contents in mM: NaCl 116.4, NaHCO3 26.2, NaH2PO4 1.02, KCl 5.36, MgSO4 0.81, CaCl2 1.8 and Glucose 5.56, pH 7.4) in the presence and absence of inhibitors. […]

For assay [4], the target named is T1, system xc- (IMR90). Set-up: species or system IMR-90; [14C]-cystine uptake inhibition, 2 min, PBS with Na+, scintillation counting. The conditions noted are these: PBS (+Na+), 2 min. As for the experimental part: Early characterization work was carried out in a 12-well format and the assay later adapted and characterized in the 96-well format. Briefly, CCF-STTG-1 cells were seeded at 0.04 x 10^6 cells per well in 0.2 ml growth media and grown to confluence. […] Cells were then lysed with 0.1 N NaOH (100 μl/well) and the radioactivity in the cells measured using scintillant-coated 96-well plates (PerkinElmer: 6005630) and normalized to protein contents. The assay was further characterized for the dependence of ^14C-cystine uptake on protein content (mg/ml) and the time and temperature of incubation. To determine IC50 values, CCF-STTG-1 cells were similarly seeded and grown to confluence. On day 3, transport was initiated upon the addition of pre-warmed (37°C) [^14C]-cystine 80 μM ([…], Sigma: E3024, contents in mM: NaCl 116.4, NaHCO3 26.2, NaH2PO4 1.02, KCl 5.36, MgSO4 0.81, CaCl2 1.8 and Glucose 5.56, pH 7.4) in the presence and absence of inhibitors. […] Identical protocols were followed for IC50 determinations using UB or phosphate buffered saline (PBS; contents in mM: S1 Table) with […] The rates of [^14C]-cystine influx and cystine-induced glutamate efflux were closely examined using CCF-STTG-1 (grade IV astrocytoma) cells in order to understand the reasons for the lower IC50 values and longer time-dependence in the cystine-induced glutamate release assay. […]

The structures appear in SMILES notation. Like-named read-outs stand apart in the source and are kept apart here. A value given as a limit tells only on which side of the number the result lay.

With `N[C@@H](C(=O)O)c1ccc(C(=O)O)cc1` [(R)-4CPG], the IC50 at system xc- (IMR90) [1] and at system xc- (H4) [2] was more than 100 µM throughout. In the case of `N[C@H](C(=O)O)c1ccc(C(=O)O)cc1` [(S)-4CPG], the IC50 at system xc- (IMR90) [1] is 2 ± 0.4 µM; against system xc- (H4) [3], 20 ± 0.4 µM. As to `O=C(O)c1cc(/N=N/c2ccc(S(=O)(=O)Nc3ccccn3)cc2)ccc1O` [SAS], the IC50 on system xc- (IMR90) [1] turned out to be 3 ± 0.2 µM. With `N[C@@H](CCC(=O)O)C(=O)O` [glutamate], the IC50 stood at 200 ± 3 µM against system xc- (IMR90) [4] and 200 ± 20 µM against system xc- (H4) [3].
